This is an account of results in PubChem BioAssay AID330 (DTP/NCI, 2004).

Values joined by “and” are separate entries in the source; they are usually repeats but may differ in a detail not shown here. Identical values can stand only once. Toxic doses and inconclusive results are not listed.

This assay concerns P388 leukemia ip, CD2F1 mice, survival T/C. Put plainly: NCI In Vivo Anticancer Drug Screen. Data for tumor model P388 Leukemia (intraperitoneal) in CD2F1 (CDF1) mice. Conditions: endpoint: median survival time, higher = longer survival. The gist of the method:
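Mice carrying the transplanted tumor received test compound or vehicle. Survival was recorded in each group, and the value is the treated-group measurement divided by that of the vehicle-treated control group.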

[1] abbreviates: dose: 12.5 mg/kg/injection, schedule: Q01DX009 (ip), vehicle: Klucel (hydroxypropylcellulose) (HPC).
Where [2] appears, read: dose: 100.0 mg/kg/injection, schedule: Q04DX003 (ip), vehicle: Klucel (hydroxypropylcellulose) (HPC).
[3] abbreviates: dose: 60.0 mg/kg/injection, schedule: Q01DX005 (ip), vehicle: Klucel (hydroxypropylcellulose) (HPC).
Where [4] appears, read: dose: 120.0 mg/kg/injection, schedule: Q01DX005 (ip), vehicle: Klucel (hydroxypropylcellulose) (HPC).
Setting [5] is: dose: 240.0 mg/kg/injection, schedule: Q01DX005 (ip), vehicle: Klucel (hydroxypropylcellulose) (HPC).
Setting [6] is: dose: 60.0 mg/kg/injection, schedule: Q01DX005 (ip), vehicle: saline with Tween-80.
Where [7] appears, read: dose: 120.0 mg/kg/injection, schedule: Q01DX005 (ip), vehicle: saline with Tween-80.
Setting [8] is: dose: 240.0 mg/kg/injection, schedule: Q01DX005 (ip), vehicle: saline with Tween-80.
[9] abbreviates: dose: 100.0 mg/kg/injection, schedule: Q04DX003 (ip), vehicle: saline with Tween-80.
Setting [10] is: dose: 50.0 mg/kg/injection, schedule: Q01DX009 (ip), vehicle: saline.
The mark [11] stands for this setting: dose: 50.0 mg/kg/injection, schedule: Q01DX005 (ip), vehicle: saline with Tween-80.
[12] abbreviates: dose: 100.0 mg/kg/injection, schedule: Q01DX005 (ip), vehicle: saline with Tween-80.
[13] abbreviates: dose: 200.0 mg/kg/injection, schedule: Q01DX005 (ip), vehicle: saline with Tween-80.
The mark [14] stands for this setting: dose: 100.0 mg/kg/injection, schedule: Q04DX003 (ip), vehicle: saline.
The mark [15] stands for this setting: dose: 200.0 mg/kg/injection, schedule: Q04DX003 (ip), vehicle: saline.
Setting [16] is: dose: 400.0 mg/kg/injection, schedule: Q04DX003 (ip), vehicle: saline.

Consider `COc1ccc([N+]([O-])=NC#N)cc1`, for which the T/C is 95 % of control under setting [1]; 98 % of control (dose: 25.0 mg/kg/injection, schedule: Q01DX009 (ip), vehicle: Klucel (hydroxypropylcellulose) (HPC)); 109 % of control (dose: 50.0 mg/kg/injection, schedule: Q01DX009 (ip), vehicle: Klucel (hydroxypropylcellulose) (HPC)); 99 % of control (dose: 50.0 mg/kg/injection, schedule: Q04DX003 (ip), vehicle: Klucel (hydroxypropylcellulose) (HPC)); 100 % of control under setting [2].
As to `CCCCc1c(C)[nH]n(C(N)=NCCSCc2nc[nH]c2C)c1=O`, the T/C by setting is: under setting [3], 100 % of control; under setting [4], 99 % of control; under setting [5], 100 % of control.
Turning to `O=[N+]([O-])c1ccccc1C(Nc1nncs1)Nc1nncs1`, the T/C is, setting by setting: (dose: 50.0 mg/kg/injection, schedule: Q01DX005 (ip), vehicle: Klucel (hydroxypropylcellulose) (HPC)) 102 % of control; (dose: 100.0 mg/kg/injection, schedule: Q01DX005 (ip), vehicle: Klucel (hydroxypropylcellulose) (HPC)) 102 % of control and 121 % of control.
Take `CN1CCOC(=O)C(C#N)=C1c1ccccc1`: the T/C runs as follows: under setting [6], 110 % of control; under setting [7], 108 % of control; under setting [8], 98 % of control.
As for `c1ccc2c(c1)/C(=N/c1nccs1)N/C2=N\c1nccs1`, the T/C is 97 % of control under setting [9]; 93 % of control (dose: 200.0 mg/kg/injection, schedule: Q04DX003 (ip), vehicle: saline with Tween-80); 91 % of control (dose: 400.0 mg/kg/injection, schedule: Q04DX003 (ip), vehicle: saline with Tween-80).
Consider `COc1ccc(C(=O)C(CN2CCOCC2)CN2CCOCC2)cc1`, for which the T/C runs as follows: (dose: 60.0 mg/kg/injection, schedule: Q01DX005 (ip), vehicle: saline) 96 % of control; (dose: 120.0 mg/kg/injection, schedule: Q01DX005 (ip), vehicle: saline) 111 % of control.
As for `COC(=O)OC(C#N)c1ccc([N+](=O)[O-])cc1` (stereo not drawn), the T/C is 99 % of control and 88 % of control (dose: 12.5 mg/kg/injection, schedule: Q01DX009 (ip), vehicle: saline); 93 % of control and 97 % of control (dose: 25.0 mg/kg/injection, schedule: Q01DX009 (ip), vehicle: saline); 90 % of control and 97 % of control under setting [10]; 97 % of control (dose: 50.0 mg/kg/injection, schedule: Q01DX009 (ip), vehicle: suspension in saline).
As to `N#CCS(=O)CC(N)C(=O)O` (stereo not drawn), the T/C is 102 % of control under setting [11], 101 % of control under setting [12] and 100 % of control under setting [13].
Regarding `O=C1CSC(c2cc(F)ccc2F)N1c1nncs1` (stereo not drawn), the T/C under setting [6] is 107 % of control, the T/C under setting [7] is 109 % of control and the T/C under setting [8] is 104 % of control.
Turning to `CC(C)(C)N(O)c1ccc(P(=O)(c2ccccc2)c2ccccc2)cc1`, the T/C reads like this: (dose: 50.0 mg/kg/injection, schedule: Q01DX009 (ip), vehicle: saline with Tween-80) 99 % of control; (dose: 100.0 mg/kg/injection, schedule: Q01DX009 (ip), vehicle: saline with Tween-80) 99 % of control; (dose: 200.0 mg/kg/injection, schedule: Q01DX009 (ip), vehicle: saline with Tween-80) 99 % of control.
In the case of `CCOC(=O)n1c(=O)oc2c(Br)cc(Br)cc21`, the T/C (dose: 50.0 mg/kg/injection, schedule: Q04DX002 (ip), vehicle: Klucel (hydroxypropylcellulose) (HPC)) is 96 % of control; the T/C (dose: 100.0 mg/kg/injection, schedule: Q04DX002 (ip), vehicle: Klucel (hydroxypropylcellulose) (HPC)) was 99 % of control; the T/C (dose: 200.0 mg/kg/injection, schedule: Q04DX002 (ip), vehicle: Klucel (hydroxypropylcellulose) (HPC)) is 93 % of control.
In the case of `NC(=O)C(N)C(F)c1ccccc1` (stereo not drawn), the T/C runs as follows: under setting [6], 102 % of control; under setting [7], 95 % of control.
`CC(N)CCC(C)(C)O` (stereo not drawn): the T/C runs as follows: (dose: 25.0 mg/kg/injection, schedule: Q04DX003 (ip), vehicle: saline) 100 % of control; (dose: 50.0 mg/kg/injection, schedule: Q04DX003 (ip), vehicle: saline) 90 % of control; under setting [14], 100 % of control.
Turning to `Cc1ccc(S(=O)(=O)CC(=O)CC(=O)C(=O)NC2C3CC4CC(C3)CC2C4)cc1` (stereo not drawn), the T/C under setting [11] is 98 % of control, the T/C under setting [12] is 90 % of control and the T/C under setting [13] is 90 % of control.
On to `CCC[CH2][Sn]([CH2]CCC)([CH2]CCC)[S]C12CC3CC(CC(C3)C1)C2`, for which the T/C is 112 % of control under setting [14], 102 % of control under setting [15] and 106 % of control under setting [16].
For the compound `Clc1ccc(CN2Cc3ccc4cccnc4c3OC2c2ccncc2)cc1Cl` (stereo not drawn), the T/C under setting [2] is 100 % of control; the T/C (dose: 200.0 mg/kg/injection, schedule: Q04DX003 (ip), vehicle: Klucel (hydroxypropylcellulose) (HPC)) is 96 % of control; the T/C (dose: 400.0 mg/kg/injection, schedule: Q04DX003 (ip), vehicle: Klucel (hydroxypropylcellulose) (HPC)) is 103 % of control.
As to `O=C(NCN1CCOCC1)Nc1ccccc1`, the T/C was 115 % of control under setting [11], 115 % of control under setting [12] and 112 % of control under setting [13].
`CC(C)(C)c1cc(C/C=C/c2ccccc2)c(O)c(C(C)(C)C)c1`: the T/C reads like this: (dose: 2.5 mg/kg/injection, schedule: Q01DX009 (ip), vehicle: saline with Tween-80) 90 % of control; (dose: 5.0 mg/kg/injection, schedule: Q01DX009 (ip), vehicle: saline with Tween-80) 99 % of control; (dose: 10.0 mg/kg/injection, schedule: Q01DX009 (ip), vehicle: saline with Tween-80) 96 % of control.
On to `N#CC1=C(Nc2ccccc2Cl)SC(c2c(Cl)cccc2Cl)NC1=O` (stereo not drawn), for which the T/C by setting is: under setting [3], 90 % of control; under setting [4], 100 % of control; under setting [5], 93 % of control.
For `O=C1c2ccccc2C(=O)N1/N=C/c1cccc(Cl)c1`, the T/C was 100 % of control (dose: 100.0 mg/kg/injection, schedule: Q04DX002 (ip), vehicle: saline with Tween-80); 93 % of control (dose: 200.0 mg/kg/injection, schedule: Q04DX002 (ip), vehicle: saline with Tween-80); 89 % of control (dose: 400.0 mg/kg/injection, schedule: Q04DX002 (ip), vehicle: saline with Tween-80).
With `CCCCC(CCCCCC(CCCC)NCc1ccc2c(c1)OCO2)NCc1ccc2c(c1)OCO2` (stereo not drawn), the T/C by setting is: (dose: 3.12 mg/kg/injection, schedule: Q01DX009 (ip), vehicle: Klucel (hydroxypropylcellulose) (HPC)) 102 % of control; (dose: 6.25 mg/kg/injection, schedule: Q01DX009 (ip), vehicle: Klucel (hydroxypropylcellulose) (HPC)) 97 % of control; under setting [1], 100 % of control and 112 % of control.
`NC(=O)CC(=O)O`: the T/C by setting is: under setting [10], 96 % of control; (dose: 100.0 mg/kg/injection, schedule: Q01DX009 (ip), vehicle: saline) 91 % of control; (dose: 200.0 mg/kg/injection, schedule: Q01DX009 (ip), vehicle: saline) 104 % of control.
In the case of `CCSc1ncc(Br)c(Sc2nc(N)nc3nc[nH]c23)n1`, the T/C (dose: 4.0 mg/kg/injection, schedule: Q04DX003 (ip), vehicle: saline with Tween-80) is 113 % of control; the T/C (dose: 6.25 mg/kg/injection, schedule: Q01DX009 (ip), vehicle: saline with Tween-80) is 122 % of control; the T/C (dose: 16.5 mg/kg/injection, schedule: Q04DX003 (ip), vehicle: saline with Tween-80) is 150 % of control; the T/C (dose: 25.0 mg/kg/injection, schedule: Q01DX009 (ip), vehicle: saline with Tween-80) was 90 % of control; the T/C (dose: 25.0 mg/kg/injection, schedule: Q04DX003 (ip), vehicle: saline with Tween-80) is 150 % of control and 159 % of control; the T/C under setting [9] was 122 % of control.
`CNC(C)C1(O)Cc2c(O)c3c(c(O)c2C(OC2CC(N)C(O)C(C)O2)C1)C(=O)c1c(OC)cccc1C3=O` (stereo not drawn): the T/C was 150 % of control (dose: 4.0 mg/kg/injection, schedule: Q01DX009 (ip), vehicle: water); 157 % of control and 161 % of control (dose: 8.0 mg/kg/injection, schedule: Q01DX009 (ip), vehicle: water); 95 % of control (dose: 16.0 mg/kg/injection, schedule: Q01DX009 (ip), vehicle: water).
In the case of `O=C(NCCO)Nc1ccccc1F`, the T/C is, setting by setting: under setting [14], 100 % of control; under setting [15], 95 % of control; under setting [16], 104 % of control.
